pIC50: −log10 of the molar value. Structures can show the parent of a compound that is named as a salt.
How the values were obtained:
hNav1.7 = biological target: T1, hNav1.7 (Homo sapiens, UniProt Q15858); assay: Tritiated sulfonamide competitive binding to membranes from cells expressing hNav1.7 and the β1 subunit (LBA); settings: competition with 100 pM [3H]compound, 18 h, room temperature; read-out: Nav1.7 (LBA)
T1 construct: expressed in transfected cells
Protocol: Tritiated Sulfonamide Binding to Membranes Isolated from Cells that Heterologously Express hNav1.7 and the β1 Subunit
Preparation of membranes containing recombinantly expressed sodium channels: Frozen recombinant cell pellets were thawed on ice and diluted to 4 times the cell pellet weight with ice cold 50 mM Tris HCl, pH 7.4 buffer. The cell suspensions were homogenized on ice using a motorized glass dounce homogenizer. Homogenates were further diluted 8.4 times with ice cold 50 mM Tris HCl, pH 7.4 buffer and then centrifuged at 200×g at 4° C. for 15 min. The supernatants were collected and centrifuged at 10000×g at 4° C. for 50 min. The pellets were then re-suspended in 100 mM NaCl, 20 mM Tris HCl, pH 7.4 buffer containing 1% v/v protease inhibitors (Calbiochem) and re-homogenized on ice. The homogenized membranes were then processed through a syringe equipped with a 26 gauge needle. Protein concentrations were determined by Bradford Assay and the membranes were stored at −80° C.
Saturation experiments. A competitive NaV1.7 inhibitor having a methyl group was tritiated. Three tritiums were incorporated in place of methyl hydrogens to generate [^3H]compound. Binding of this radioligand was preformed in 5 mL borosilicate glass test tubes at room temperature. Binding was initiated by adding membranes to increasing concentrations of [^3H]compound in 100 mM NaCl, 20 mM Tris HCl, pH 7.4 buffer containing 0.01% w/v bovine serum albumin (BSA) for 18 h. Non-specific binding was determined in the presence of 1 μM unlabelled compound. After 18 h, the reactants were filtered through GF/C glass fiber filters presoaked in 0.5% w/v polyethylene imine. Filters were washed with 15 mL ice cold 100 mM NaCl, 20 mM Tris HCl, pH 7.4 buffer containing 0.25% BSA to separate bound from free ligand. [^3H]compound bound to filters was quantified by liquid scintillation counting.
Binding reactions were performed in 96-well polypropylene plates at room temperature for 18 h. In 360 μL, membranes were incubated with 100 pM [^3H]compound and increasing concentrations of Test Compound. Non-specific binding was defined in the presence of 1 μM unlabelled compound. Reactions were transferred and filtered through 96-well glass fiber/C filter plates presoaked with 0.5% polyethylene imine. The filtered reactions were washed 5 times with 200 μL ice cold buffer containing 0.25% BSA. Bound radioactivity was determined by liquid scintillation counting.
Data Analysis: For saturation experiments, non-specific binding was subtracted from total binding to provide specific binding and these values were recalculated in terms of pmol ligand bound per mg protein. Saturation curves were constructed and dissociation constants were calculated using the single site ligand binding model: Beq=(Bmax*X)/(X+Kd), where Beq is the amount of ligand bound at equilibrium, Bmax is the maximum receptor density, Kd is the dissociation constant for the ligand, and X is the free ligand concentration. For competition studies percent inhibition was determined and IC50 values were calculated using a 4 parameter logistic model (% inhibition=(A+((B−A)/(1+((x/C)^D)))) using XLfit, where A and B are the maximal and minimum inhibition respectively, C is the IC50 concentration and D is the (Hill) slope.

NaV1.7 = biological target: T2, NaV1.7 (Homo sapiens, UniProt Q15858); assay: Patch voltage clamp electrophysiology assay (EP), NaV1.7 in HEK-293 cells; type: cell-based; settings: HEK-293, β1 coexpressed, held at -60 mV (inactivated state)
T2 construct: expression vector containing the full-length cDNA coding for the desired human sodium channel α-subunit; expressed in transfected cells; host or cells: HEK-293
T2 sequence (Q15858 1-1977 isoform Q15858-3): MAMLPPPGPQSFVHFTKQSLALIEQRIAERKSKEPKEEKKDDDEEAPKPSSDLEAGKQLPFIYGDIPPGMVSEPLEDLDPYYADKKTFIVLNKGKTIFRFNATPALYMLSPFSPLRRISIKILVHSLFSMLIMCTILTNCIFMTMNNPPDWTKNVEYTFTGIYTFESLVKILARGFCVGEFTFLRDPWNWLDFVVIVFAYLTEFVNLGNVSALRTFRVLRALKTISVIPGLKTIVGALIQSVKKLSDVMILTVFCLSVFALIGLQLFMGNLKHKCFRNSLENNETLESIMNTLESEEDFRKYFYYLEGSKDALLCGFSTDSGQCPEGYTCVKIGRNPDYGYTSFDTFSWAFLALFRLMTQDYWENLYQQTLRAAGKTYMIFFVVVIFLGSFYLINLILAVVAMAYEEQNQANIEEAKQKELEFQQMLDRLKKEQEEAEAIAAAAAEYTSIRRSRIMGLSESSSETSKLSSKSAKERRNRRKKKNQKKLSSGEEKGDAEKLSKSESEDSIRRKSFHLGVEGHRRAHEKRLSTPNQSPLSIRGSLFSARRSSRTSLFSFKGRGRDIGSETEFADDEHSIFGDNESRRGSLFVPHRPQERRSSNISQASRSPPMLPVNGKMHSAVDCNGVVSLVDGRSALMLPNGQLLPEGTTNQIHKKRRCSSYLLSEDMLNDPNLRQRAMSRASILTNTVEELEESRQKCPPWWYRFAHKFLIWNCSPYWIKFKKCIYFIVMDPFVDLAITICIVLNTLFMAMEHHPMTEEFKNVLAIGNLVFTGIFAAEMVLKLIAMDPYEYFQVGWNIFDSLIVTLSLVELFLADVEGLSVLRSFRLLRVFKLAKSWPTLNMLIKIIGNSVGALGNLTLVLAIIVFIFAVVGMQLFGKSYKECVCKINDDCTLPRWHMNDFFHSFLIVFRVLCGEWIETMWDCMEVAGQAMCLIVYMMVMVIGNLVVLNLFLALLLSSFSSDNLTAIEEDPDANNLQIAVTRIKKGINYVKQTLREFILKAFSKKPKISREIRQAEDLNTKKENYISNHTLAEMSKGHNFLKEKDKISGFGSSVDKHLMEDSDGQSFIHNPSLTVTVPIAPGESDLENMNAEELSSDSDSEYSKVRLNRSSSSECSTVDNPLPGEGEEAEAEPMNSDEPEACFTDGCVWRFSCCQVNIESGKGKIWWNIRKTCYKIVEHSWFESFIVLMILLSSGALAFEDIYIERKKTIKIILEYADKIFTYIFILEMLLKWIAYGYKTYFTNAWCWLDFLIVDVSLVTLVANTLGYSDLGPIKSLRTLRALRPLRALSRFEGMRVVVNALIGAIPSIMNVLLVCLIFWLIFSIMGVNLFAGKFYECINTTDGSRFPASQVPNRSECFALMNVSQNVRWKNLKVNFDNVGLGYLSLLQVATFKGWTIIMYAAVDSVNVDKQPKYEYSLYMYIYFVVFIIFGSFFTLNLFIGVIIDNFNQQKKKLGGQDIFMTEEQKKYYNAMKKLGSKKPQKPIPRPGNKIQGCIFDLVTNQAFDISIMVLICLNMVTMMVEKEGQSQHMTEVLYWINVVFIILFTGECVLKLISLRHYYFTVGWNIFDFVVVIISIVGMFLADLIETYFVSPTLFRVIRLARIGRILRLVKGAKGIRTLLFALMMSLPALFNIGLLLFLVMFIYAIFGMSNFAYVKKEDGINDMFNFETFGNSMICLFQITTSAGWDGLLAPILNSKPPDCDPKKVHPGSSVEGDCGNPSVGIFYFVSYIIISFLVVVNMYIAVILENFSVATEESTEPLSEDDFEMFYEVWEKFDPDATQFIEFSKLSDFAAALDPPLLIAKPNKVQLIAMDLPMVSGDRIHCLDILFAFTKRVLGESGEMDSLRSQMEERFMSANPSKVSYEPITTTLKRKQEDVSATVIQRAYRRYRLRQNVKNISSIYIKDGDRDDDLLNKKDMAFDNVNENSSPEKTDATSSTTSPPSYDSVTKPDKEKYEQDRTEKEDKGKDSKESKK
T2 sequence (Q07699 19-218 partner): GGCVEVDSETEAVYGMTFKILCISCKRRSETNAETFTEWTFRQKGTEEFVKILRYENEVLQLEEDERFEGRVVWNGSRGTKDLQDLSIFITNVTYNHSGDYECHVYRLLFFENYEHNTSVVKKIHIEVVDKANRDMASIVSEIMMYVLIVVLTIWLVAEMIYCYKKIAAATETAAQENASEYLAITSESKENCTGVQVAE
From the text: (§1) Electrophysiological Assay (EP) (In Vitro Assay)
(§2) Patch voltage clamp electrophysiology allows for the direct measurement and quantification of block of voltage-gated sodium channels (NaV's), and allows the determination of the time- and voltage-dependence of block which has been interpreted as differential binding to the resting, open, and inactivated states of the sodium channel (Hille, B., Journal of General Physiology (1977), 69: 497-515).
(§3) The following patch voltage clamp electrophysiology studies were performed on representative compounds of the invention using human embryonic kidney cells (HEK), permanently transfected with an expression vector containing the full-length cDNA coding for the desired human sodium channel α-subunit, grown in culture media containing 10% FBS, 1% PSG, and 0.5 mg/mL G418 at 37° C. with 5% CO2. […] NaV1.7 and NaV1.5 cDNAs (NM_002977 and AC137587; SCN5A, respectively) were stably expressed in HEK-293 cells. The β1 subunit was coexpressed in both the NaV1.7 and NaV1.5 cell lines.
(§4) Sodium currents were measured using the patch clamp technique in the whole-cell configuration using either a PatchXpress automated voltage clamp or manually using an Axopatch 200B (Axon Instruments) or Model 2400 (A-M systems) amplifier. The manual voltage clamp protocol was as follows: Borosilicate glass micropipettes were fire-polished to a tip diameter yielding a resistance of 2-4 Mohms in the working solutions. The pipette was filled with a solution comprised of: 5 mM NaCl, 10 mM CsCl, 120 mM CsF, 0.1 mM CaCl2, 2 mM MgCl2, 10 mM HEPES, 10 mM EGTA; and adjusted to pH 7.2 with CsOH. The external solution had the following composition: 140 mM NaCl, 5 mM KCl, 2 mM CaCl2, 1 mM MgCl2, 10 mM HEPES; and adjusted to pH 7.4 with NaOH. In some studies, the external sodium was reduced by equimolar replacement with choline. Osmolarity in the CsF internal and NaCl external solutions was adjusted to 300 mOsm/kg and 310 mOsm/kg with glucose, respectively. All recordings were performed at ambient temperature in a bath chamber with a volume of 150 μL. Control sodium currents were measured in 0.5% DMSO. Controls and representative compounds of the invention were applied to the recording chamber through a 4-pinch or 8-pinch valve bath perfusion system manufactured by ALA Scientific Instruments.
(§5) Currents were recorded at 40 kHz sampling frequency, filtered at […], and stored using a Digidata-1322A analogue/digital interface with the pClamp software (Axon Instruments). Series resistance compensation was applied (60-80%). […] All statistics in this study are given as mean±SD.
(§6) The membrane potential was maintained at a voltage where inactivation of the channel is complete (which was −60 mV for both NaV1.7 and NaV1.5). The voltage is then stepped back to a very negative (Vhold=[…]) voltage for 20 ms and then a test pulse is applied to quantify the compound block. The 20 ms brief repolarization was long enough for compound-free channels to completely recover from fast inactivation, but the compound-bound channels recovered more slowly such that negligible recovery could occur during this interval. The percent decrease in sodium current following wash-on of compound was taken as the percent block of sodium channels.

NaV1.5 = biological target: T3, NaV1.5 (Homo sapiens, UniProt Q14524); assay: Patch voltage clamp electrophysiology assay (EP), NaV1.5 in HEK-293 cells; type: cell-based; settings: HEK-293, β1 coexpressed, held at -60 mV (inactivated state)
T3 construct: expression vector containing the full-length cDNA coding for the desired human sodium channel α-subunit; expressed in transfected cells; host or cells: HEK-293
T3 sequence (Q14524 whole entry): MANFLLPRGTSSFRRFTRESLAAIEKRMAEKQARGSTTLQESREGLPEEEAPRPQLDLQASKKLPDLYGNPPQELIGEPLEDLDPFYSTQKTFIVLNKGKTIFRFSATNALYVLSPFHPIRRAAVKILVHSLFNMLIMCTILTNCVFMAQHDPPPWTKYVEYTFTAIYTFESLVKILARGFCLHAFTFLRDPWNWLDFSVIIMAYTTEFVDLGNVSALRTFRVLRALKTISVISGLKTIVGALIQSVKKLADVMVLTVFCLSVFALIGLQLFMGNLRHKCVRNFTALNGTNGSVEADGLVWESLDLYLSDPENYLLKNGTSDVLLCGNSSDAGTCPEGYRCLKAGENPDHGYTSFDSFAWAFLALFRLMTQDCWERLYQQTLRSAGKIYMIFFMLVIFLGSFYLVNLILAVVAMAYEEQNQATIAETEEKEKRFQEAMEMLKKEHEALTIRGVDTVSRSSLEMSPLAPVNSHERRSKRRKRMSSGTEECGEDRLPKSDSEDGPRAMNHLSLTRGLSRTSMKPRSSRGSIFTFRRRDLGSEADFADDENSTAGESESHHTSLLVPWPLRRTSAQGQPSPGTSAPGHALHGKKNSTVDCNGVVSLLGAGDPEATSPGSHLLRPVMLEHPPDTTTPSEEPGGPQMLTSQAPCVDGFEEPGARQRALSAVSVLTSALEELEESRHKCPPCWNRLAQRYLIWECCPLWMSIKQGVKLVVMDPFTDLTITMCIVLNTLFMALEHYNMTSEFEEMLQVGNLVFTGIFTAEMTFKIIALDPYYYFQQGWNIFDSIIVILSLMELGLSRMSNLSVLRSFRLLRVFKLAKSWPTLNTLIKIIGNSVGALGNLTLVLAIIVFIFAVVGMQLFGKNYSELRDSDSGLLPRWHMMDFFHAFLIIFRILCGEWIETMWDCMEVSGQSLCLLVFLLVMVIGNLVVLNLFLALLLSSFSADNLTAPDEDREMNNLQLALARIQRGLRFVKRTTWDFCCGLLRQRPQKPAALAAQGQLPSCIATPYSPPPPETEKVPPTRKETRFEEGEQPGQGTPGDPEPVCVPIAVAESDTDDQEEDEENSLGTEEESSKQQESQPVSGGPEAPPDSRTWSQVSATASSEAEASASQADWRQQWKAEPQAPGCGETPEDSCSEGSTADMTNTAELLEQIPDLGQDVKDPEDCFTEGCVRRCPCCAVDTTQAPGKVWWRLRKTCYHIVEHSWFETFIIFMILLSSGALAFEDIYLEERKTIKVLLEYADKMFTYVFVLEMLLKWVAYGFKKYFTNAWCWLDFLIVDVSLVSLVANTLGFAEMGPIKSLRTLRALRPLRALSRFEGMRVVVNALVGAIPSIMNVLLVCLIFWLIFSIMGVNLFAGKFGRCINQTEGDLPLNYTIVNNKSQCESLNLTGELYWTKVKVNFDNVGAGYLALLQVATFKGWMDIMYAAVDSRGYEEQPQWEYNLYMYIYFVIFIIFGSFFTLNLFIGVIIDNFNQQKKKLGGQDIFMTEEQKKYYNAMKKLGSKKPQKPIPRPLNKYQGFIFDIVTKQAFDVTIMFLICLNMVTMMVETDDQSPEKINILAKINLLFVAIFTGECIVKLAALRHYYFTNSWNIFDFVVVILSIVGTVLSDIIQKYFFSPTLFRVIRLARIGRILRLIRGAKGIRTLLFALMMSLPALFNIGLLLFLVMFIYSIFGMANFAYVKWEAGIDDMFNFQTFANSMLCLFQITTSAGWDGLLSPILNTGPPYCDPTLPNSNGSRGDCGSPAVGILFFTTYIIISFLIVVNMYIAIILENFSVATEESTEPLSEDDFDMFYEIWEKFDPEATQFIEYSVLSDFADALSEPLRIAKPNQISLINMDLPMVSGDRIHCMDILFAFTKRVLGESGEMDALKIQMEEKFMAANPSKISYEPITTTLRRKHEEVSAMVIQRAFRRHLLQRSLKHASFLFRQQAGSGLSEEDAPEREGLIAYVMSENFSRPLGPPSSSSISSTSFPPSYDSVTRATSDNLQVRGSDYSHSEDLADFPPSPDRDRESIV
From the text: as §1, §2, §3, §4, §5, §6

T1 sequence (Q15858 1-1977 isoform Q15858-3): as the sequence (Q15858 1-1977 isoform Q15858-3) above
T1 sequence (Q07699 19-218 partner): as the sequence (Q07699 19-218 partner) above

Structure (SMILES) | pIC50 (hNav1.7) | pIC50 (NaV1.7) | pIC50 (NaV1.5) | pIC50 (NaV1.5; human, pH 7.4)
Cc1nn([C@@H]2CCN([C@@H](C)c3cc(Cl)cc(Cl)c3)C2)c2cc(F)c(C(=O)NS(C)(=O)=O)cc12 [Example 18, 1-((R)-1-((S)-1-(3,5-dichlorophenyl)ethyl)pyrrolidin-3-yl)-6-fluoro-3-methyl-N-(methylsulfonyl)-1H-indazole-5-carboxamide, trifluoroacetic acid salt] | 7.40 | 6.82 | 4.77 | –
Cc1nn([C@@H]2CCN([C@@H](C)c3cc(Cl)cc(Cl)c3)C2)c2cc(F)c(C(=O)NS(=O)(=O)C3CC3)cc12 [Example 19, N-(cyclopropylsulfonyl)-1-((R)-1-((S)-1-(3,5-dichlorophenyl)ethyl)pyrrolidin-3-yl)-6-fluoro-3-methyl-1H-indazole-5-carboxamide, trifluoroacetic acid salt] | 7.92 | 7.39 | 5.20 | –
Cc1nn([C@@H]2CCN(Cc3ccc(Cl)cc3C(F)(F)F)C2)c2cc(F)c(C(=O)NS(=O)(=O)C3CC3)cc12 [Example 20, (R)-1-(1-(4-chloro-2-(trifluoromethyl)benzyl)pyrrolidin-3-yl)-N-(cyclopropylsulfonyl)-6-fluoro-3-methyl-1H-indazole-5-carboxamide, trifluoroacetic acid salt] | 8.00 | 7.21 | 6.24 | –
Cc1nn([C@@H]2CCN(C(=O)c3cc(Cl)cc(Cl)c3)C2)c2cc(F)c(C(=O)NS(=O)(=O)C3CC3)cc12 [Example 21, (R)-N-(cyclopropylsulfonyl)-1-(1-(3,5-dichlorobenzoyl)pyrrolidin-3-yl)-6-fluoro-3-methyl-1H-indazole-5-carboxamide] | 5.82 | 5.40 | – | ≤ 4.52
Cc1nn([C@@H]2CCN([C@H](C)c3cc(Cl)cc(OC(F)(F)F)c3)C2)c2cc(F)c(C(=O)NS(=O)(=O)C3CC3)cc12 [Example 22, 1-((R)-1-((R)-1-(3-chloro-5-(trifluoromethoxy)phenyl)ethyl)pyrrolidin-3-yl)-N-(cyclopropylsulfonyl)-6-fluoro-3-methyl-1H-indazole-5-carboxamide, trifluoroacetic acid salt] | 7.70 | 6.96 | 5.32 | –
Cc1nn(CC2CN(C(c3ccccc3)c3ccccc3)C2)c2cc(F)c(C(=O)NS(C)(=O)=O)cc12 [Example 23, 1-((1-benzhydrylazetidin-3-yl)methyl)-6-fluoro-3-methyl-N-(methylsulfonyl)-1H-indazole-5-carboxamide] | 6.55 | 6.26 | – | ≤ 4.52
Cc1nn(C2CN(C(c3ccccc3)c3ccccc3)C2)c2cc(F)c(C(=O)NS(C)(=O)=O)cc12 [Example 24, 1-(1-benzhydrylazetidin-3-yl)-6-fluoro-3-methyl-N-(methylsulfonyl)-1H-indazole-5-carboxamide] | 7.32 | 7.06 | 5.07 | –
Cc1nn(C2CCC(C(C)C)CC2)c2cc(F)c(C(=O)NS(C)(=O)=O)cc12 (stereo not drawn) [Example 33, 6-fluoro-1-(4-isopropylcyclohexyl)-3-methyl-N-(methylsulfonyl)-1H-indazole-5-carboxamide] | 7.70 | 7.10 | 4.70 | –
Cc1nn(C23CC4CC(CC(C4)C2)C3)c2cc(F)c(C(=O)NS(=O)(=O)N3CCC3)cc12 [Example 35, 1-((3s,5s,7s)-adamantan-1-yl)-N-(azetidin-1-ylsulfonyl)-6-fluoro-3-methyl-1H-indazole-5-carboxamide] | 6.74 | 6.00 | – | ≤ 4.52
Cc1nn(C23CC4CC(CC(C4)C2)C3)c2cc(F)c(C(=O)NS(C)(=O)=O)cc12 [Example 36, 1-((3s,5s,7s)-adamantan-1-yl)-6-fluoro-3-methyl-N-(methylsulfonyl)-1H-indazole-5-carboxamide] | 6.43 | 5.51 | – | ≤ 4.52
Cc1nn(C2CCCCC2)c2cc(F)c(C(=O)NS(=O)(=O)N3CCC3)cc12 [Example 37, N-(azetidin-1-ylsulfonyl)-1-cyclohexyl-6-fluoro-3-methyl-1H-indazole-5-carboxamide] | 6.31 | 5.44 | – | ≤ 4.52
Cc1nn(C2CCCCC2)c2cc(F)c(C(=O)NS(C)(=O)=O)cc12 [Example 38, 1-cyclohexyl-6-fluoro-3-methyl-N-(methylsulfonyl)-1H-indazole-5-carboxamide] | 6.00 | 4.96 | – | ≤ 4.52
Cc1nn(-c2cnc(OCC(C)C)c(Cl)c2)c2cc(F)c(C(=O)NS(C)(=O)=O)cc12 [Example 39, 1-(5-chloro-6-isobutbxypyridin-3-yl)-6-fluoro-3-methyl-N-(methylsulfonyl)-1H-indazole-5-carboxamide] | 8.10 | 7.41 | – | ≤ 4.52
Cc1nn(CC23CC4CC(CC(C4)C2)C3)c2cc(F)c(C(=O)N[S@TB2](C)(=O)=O)cc12 [Example 40, 1-(((1s,3s)-adamantan-1-yl)methyl)-6-fluoro-3-methyl-N-(methylsulfonyl)-1H-indazole-5-carboxamide] | 6.39 | 5.92 | – | ≤ 4.52
Cc1nn(CC23CC4CC(CC(C4)C2)C3)c2cc(F)c(C(=O)N[S@TB3](=O)(=O)N3CCC3)cc12 [Example 41, 1-(((1s,3s)-adamantan-1-yl)methyl)-N-(azetidin-1-ylsulfonyl)-6-fluoro-3-methyl-1H-indazole-5-carboxamide] | 6.52 | 5.47 | – | ≤ 4.52
